Test results: patent publication US10000791B2, “Measurement method for human pancreatic lipase activity” (ASAHI KASEI PHARMA CORPORATION, priority 2013, dated 2018)

Columns and labels:
Format in all cases: biochemical
[1] = system: human pancreatic lipase; assay: lipase activity measured in control, normal and heparin-administered samples with each reagent (1,2-dioleoyl glycerol, UV method; Liquitech Lipase Color II for verification); parameters: lipase activity relative to (1) comparative example NaDCA (Table 1): concentration or dose not given beside the values; settings: for lipase activity (Table 2): comparative example pH 8.15, present example pH 7.1, bile acid 40 mmol/L in R-1; for lipase activity (Table 1): NaDCA pH 8.15, other bile salts pH 7.0; for lipase activity relative to (1) comparative example NaDCA (Table 1): pH 7.0
Procedure: (§1) A mixture of the substrate stock solution and the R-1 in a proportion of 1:2 was used as a first reagent. The R-2 was directly used as a second reagent. As a sample, pooled serum or a control sample (a control containing a pancreatic lipase) was used. A proportion in amount among the sample, the first reagent and the second reagent was set as sample:first reagent:second reagent of 0.01 ml:0.18 ml:0.06 ml. The sample was added to the first reagent, the resultant mixture was heated at 37° C. for 5 minutes, the second reagent was added thereto, and a change rate of an absorbance at 340 nm based on reduced NADP was obtained at 37° C. from 3 minutes after the addition of the second reagent to 4 minutes after the addition, and then, the lipase activity was calculated by using a molecular extinction coefficient of 6300 L/mol·cm of the reduced NADP. Besides, as a sample blank, saline was used instead of a sample, an absorbance was measured by using the reagent for sample blank obtained by removing MGLPII from the second reagent, and a difference between the thus measured two values was defined as an enzyme activity value. For the measurement, Hitachi automatic analyzer Model H7170 or H7080 was used.
(§2) Similarly to Example 1, a mixture of the substrate stock solution and the R-1 in a proportion of 1:2 was used as a first reagent. Except for this, the measurement was performed in the same manner as in Example 1.
A commercially available reagent for a resorufin colorimetric method, “Liquitech Lipase Color II” manufactured by Roche Diagnostics using 1,2-O-dilauryl-rac-glycerol-3-glutaric acid-(6-methylresorufin)ester (DGGR), which is regarded not to be influenced by a non-pancreatic lipase, such as a lipoprotein lipase or a hepatic lipase, appearing in blood due to administration of heparin, was used for verifying the effect of the present example. “Liquitech Lipase Color II” was used in accordance with the package insert, and a special calibrator was used for calculating the enzyme activity. […] The concentration of each bile acid used in the present example was set to be the same as that in the comparative example.
As samples, a control, non-heparin-administered samples (normal samples), and heparin-administered samples were used.
The compositions of the reagents were the same as those of Example 2. As a comparative example, NaDCA (in a concentration of 40 mmol/L in the R-1) was used as the bile acid, and the reaction solution was adjusted to pH 8.15 (by the Bicine buffer) for measuring a heparin-administered sample.
It is noted that CRM-001b containing a human pancreatic recombinant lipase dissolved not in distilled water but in a pooled serum was used as the calibrator to calculate the lipase activity.
As a bile acid of the present example and a reference example, NaTDCA was selected, and the pH dependence with the pH of a reaction solution changed in a range of 6.2 to 7.6 was examined. It is noted that a case of pH 7.6 was used as the reference example. An MES buffer was used for adjusting pH to 6.2 and 6.4, and the BES buffer was used for adjusting the other pHs. As samples, (six) control samples (controls each containing a pancreatic lipase) and (nine) heparin-administered samples were used. As a comparative example, NaDCA (in a concentration of 40 mmol/L in the R-1) was used as the bile acid, and a reaction solution having pH 8.15 (the Bicine buffer) was used. Besides, “Liquitech Lipase Color II” manufactured by Roche Diagnostics was used for verifying the effect of the present example.

[2] = system: human pancreatic lipase; assay: pH dependence of human pancreatic lipase activity in the presence of bile acids (diglyceride substrate, UV method); settings: for degree of the activation of human pancreatic lipase / pH for giving a maximum value of the activity (apparent optimum pH): pooled serum; for degree of the activation of human pancreatic lipase: conjugated bile acid singly, 40 mmol/L in R-1; for pH for giving a maximum value of the activity (apparent optimum pH): non-conjugated bile acid singly, pH 7.2-8.5
Procedure: After weighing 1,2-dioleoyl glycerol (DODG) (manufactured by Nippon Fine Chemical Co., Ltd.) to attain a concentration of 9.32 mmol/L when dissolved, 1% polyoxyethylene (10) nonyl phenyl ether (NPE) (manufactured by Wako Pure Chemical Industries Ltd.) containing 1.66 mmol/L of MES (manufactured by Dojindo Laboratories) was added thereto to be dissolved therein by stirring at 37° C. for 2 hours, and the resultant was allowed to stand still in ice for 2 hours or more. The thus obtained solution was used as a substrate original liquid.
The above-described diglyceride original liquid was used for preparing a “substrate stock solution” having the following composition:
A “first reaction solution (R-1)” having the following composition was prepared:
A “second reaction solution (R-2)” having the following composition was prepared:
A “second reaction solution (R-2) for sample blank” having the following composition was prepared:
as §1
As a conjugated bile acid to be added to the R-1, sodium taurodeoxycholate (NaTDCA), sodium glycodeoxycholate (NaGDCA), sodium glycochenodeoxycholate (NaGCDCA), sodium taurochenodeoxycholate (NaTCDCA), sodium glycocholate (NaGCA), sodium taurocholate (NaTCA) and sodium tauroursodeoxycholate (NaTUDCA) all in a concentration of 40 mmol/L were selected, the R-1 was adjusted, by using BES (manufactured by Dojindo Laboratories) respectively to pH 6.8, 7.0, 7.2, 7.4, 7.8, and 8.0, and the human pancreatic lipase activity was measured by using these. The pH of the R-2 was adjusted to be equal to that of the R-1.
It is noted that the concentration of each non-conjugated bile acid was set to be 24 mmol/L in the R-1. Besides, BES was used for adjusting pH to 7.2, 7.6, 7.8 and 8.0, and Bicine was used for adjusting pH to 8.2 and 8.5.
as §2
Besides, NaTCA was also combined with a conjugated bile acid, NaTDCA, to examine the pH for giving a maximum value of the human pancreatic lipase activity (the apparent optimum pH). It is noted that a BES buffer was used for adjusting pH to 6.9, 7.2 and 7.7, and a Bicine buffer was used for adjusting pH to 7.95 and 8.2. In each of the combinations of NaGCA/NaDCA, NaTCA/NaDCA, NaTUDCA/NaDCA and NaTCA/NaTDCA, the concentration of each bile acid was set to 20 mmol/L in the R-1. With respect to the combination of NaTCA and NaTDCA, a concentration of 40 mmol/L of NaTDCA was used as a control.
The compositions of the reagents and the measurement operation were the same as those of Example 2.

[3] = system: human pancreatic lipase; assay: as above; settings: human pooled serum; pH changed between 7.4 and 8.4 (Example 12)
Target sequence in this assay (P16233 17-465): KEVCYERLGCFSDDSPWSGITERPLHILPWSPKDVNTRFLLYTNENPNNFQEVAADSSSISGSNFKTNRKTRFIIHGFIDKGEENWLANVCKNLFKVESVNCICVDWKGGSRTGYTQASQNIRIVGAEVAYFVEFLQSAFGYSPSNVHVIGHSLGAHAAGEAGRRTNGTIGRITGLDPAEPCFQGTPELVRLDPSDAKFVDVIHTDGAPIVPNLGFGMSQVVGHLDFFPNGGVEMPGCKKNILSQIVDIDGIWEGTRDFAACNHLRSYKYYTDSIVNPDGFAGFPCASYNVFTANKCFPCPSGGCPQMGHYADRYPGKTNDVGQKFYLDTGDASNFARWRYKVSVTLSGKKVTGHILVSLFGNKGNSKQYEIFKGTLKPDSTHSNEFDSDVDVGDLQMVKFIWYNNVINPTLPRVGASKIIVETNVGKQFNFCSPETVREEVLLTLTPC
Target sequence in this assay (P02703 23-112 partner): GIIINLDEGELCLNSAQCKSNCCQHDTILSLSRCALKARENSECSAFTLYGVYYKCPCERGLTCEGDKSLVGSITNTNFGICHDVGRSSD

## C[C@H](CCC(=O)NCCS(=O)(=O)[O-])[C@H]1CC[C@H]2[C@@H]3[C@@H](O)C[C@@H]4C[C@H](O)CC[C@]4(C)[C@H]3CC[C@]12C.[Na+] [NaTCDCA, sodium taurochenodeoxycholate]
[1]; sample Heparin 1
  lipase activity (Table 2): 54.5 U/L
[1]; sample Heparin 2
  lipase activity (Table 2): 31.7 U/L
[1]; sample Heparin 3
  lipase activity (Table 2): 48.1 U/L

## C[C@H](CCC(=O)NCCS(=O)(=O)[O-])[C@H]1CC[C@H]2[C@@H]3[C@@H](O)C[C@@H]4C[C@H](O)CC[C@]4(C)[C@H]3CC[C@]12C.[Na+] [NaTUDCA, sodium tauroursodeoxycholate]
[2]
  degree of the activation of human pancreatic lipase: below detection limit

## sodium deoxycholate [NaDCA]
[2]; 24 mmol/L in R-1
  pH for giving a maximum value of the activity (apparent optimum pH): about 8.2
[1]; Normal sample 1
  lipase activity (Table 1): 39.1 U/L
[1]; Normal sample 2
  lipase activity (Table 1): 95.0 U/L
[1]; Normal sample 3
  lipase activity (Table 1): 46.6 U/L
[1]; Normal sample 4
  lipase activity (Table 1): 43.5 U/L
[1]; Normal sample 5
  lipase activity (Table 1): 40.7 U/L
[1]; sample Heparin 1
  lipase activity (Table 1): 76.8 U/L
[1]; sample Heparin 2
  lipase activity (Table 1): 86.7 U/L
[1]; sample Heparin 3
  lipase activity (Table 1): 112.9 U/L
[1]; sample Heparin 4
  lipase activity (Table 1): 101.4 U/L
[1]; sample Heparin 5
  lipase activity (Table 1): 68.5 U/L
[1]; sample Heparin 6
  lipase activity (Table 1): 69.2 U/L
[1]; sample Heparin 7
  lipase activity (Table 1): 138.3 U/L
[1]; sample Heparin 8
  lipase activity (Table 1): 126.0 U/L
[1]; sample Heparin 9
  lipase activity (Table 1): 168.8 U/L
[1]; sample PRECINORM
  lipase activity (Table 1): 51.0 U/L
[1]; sample PRECIPATH
  lipase activity (Table 1): 128.0 U/L
[3]
  pH for giving a maximum value of the human pancreatic lipase activity: about 8.2

## C[C@H](CCC(=O)NCCS(=O)(=O)O)[C@H]1CC[C@H]2[C@@H]3[C@H](O)C[C@@H]4C[C@H](O)CC[C@]4(C)[C@H]3C[C@H](O)[C@]12C [NaTCA, sodium taurocholate]
[2]
  degree of the activation of human pancreatic lipase: below detection limit

## C[C@H](CCC(=O)NCC(=O)[O-])[C@H]1CC[C@H]2[C@@H]3[C@H](O)C[C@@H]4C[C@H](O)CC[C@]4(C)[C@H]3C[C@H](O)[C@]12C.[Na+] [NaGCA, sodium glycocholate]
[2]
  degree of the activation of human pancreatic lipase: below detection limit

## C[C@H](CCC(=O)NCC(=O)[O-])[C@H]1CC[C@H]2[C@@H]3CC[C@@H]4C[C@H](O)CC[C@]4(C)[C@H]3C[C@H](O)[C@]12C.[Na+] [NaGDCA, sodium glycodeoxycholate]
[1]; Normal sample 1
  lipase activity (Table 1): 47.1 U/L
  lipase activity relative to (1) comparative example NaDCA (Table 1): 120.6%
[1]; Normal sample 2
  lipase activity (Table 1): 91.5 U/L
  lipase activity relative to (1) comparative example NaDCA (Table 1): 96.3%
[1]; Normal sample 3
  lipase activity (Table 1): 49.7 U/L
  lipase activity relative to (1) comparative example NaDCA (Table 1): 106.5%
[1]; Normal sample 4
  lipase activity (Table 1): 32.9 U/L
  lipase activity relative to (1) comparative example NaDCA (Table 1): 75.8%
[1]; Normal sample 5
  lipase activity (Table 1): 36.2 U/L
  lipase activity relative to (1) comparative example NaDCA (Table 1): 89.0%
[1]; sample Heparin 1
  lipase activity (Table 1): 39.1 U/L
  lipase activity relative to (1) comparative example NaDCA (Table 1): 50.9%
[1]; sample Heparin 2
  lipase activity (Table 1): 47.5 U/L
  lipase activity relative to (1) comparative example NaDCA (Table 1): 54.8%
[1]; sample Heparin 3
  lipase activity (Table 1): 36.9 U/L
  lipase activity relative to (1) comparative example NaDCA (Table 1): 32.7%
[1]; sample Heparin 4
  lipase activity (Table 1): 28.2 U/L
  lipase activity relative to (1) comparative example NaDCA (Table 1): 27.8%
[1]; sample Heparin 5
  lipase activity (Table 1): 23.8 U/L
  lipase activity relative to (1) comparative example NaDCA (Table 1): 34.8%
[1]; sample Heparin 6
  lipase activity (Table 1): 28.9 U/L
  lipase activity relative to (1) comparative example NaDCA (Table 1): 41.8%
[1]; sample Heparin 7
  lipase activity (Table 1): 58.0 U/L
  lipase activity relative to (1) comparative example NaDCA (Table 1): 42.0%
[1]; sample Heparin 8
  lipase activity (Table 1): 43.9 U/L
  lipase activity relative to (1) comparative example NaDCA (Table 1): 34.8%
[1]; sample Heparin 9
  lipase activity (Table 1): 81.0 U/L
  lipase activity relative to (1) comparative example NaDCA (Table 1): 48.0%
[1]; sample PRECINORM
  lipase activity (Table 1): 52.2 U/L
  lipase activity relative to (1) comparative example NaDCA (Table 1): 102.4%
[1]; sample PRECIPATH
  lipase activity (Table 1): 124.6 U/L
  lipase activity relative to (1) comparative example NaDCA (Table 1): 97.4%

## C[C@H](CCC(=O)[O-])[C@H]1CC[C@H]2[C@@H]3[C@H](O)C[C@@H]4C[C@H](O)CC[C@]4(C)[C@H]3CC[C@]12C.[Na+] [NaCDCA, sodium chenodeoxycholate]
[2]; 24 mmol/L in R-1
  pH for giving a maximum value of the activity (apparent optimum pH): about 7.7

## C[C@H](CCC(=O)[O-])[C@H]1CC[C@H]2[C@@H]3[C@H](O)C[C@@H]4C[C@H](O)CC[C@]4(C)[C@H]3C[C@H](O)[C@]12C.[Na+] [NaCA, sodium cholate]
[2]; 24 mmol/L in R-1, compared with NaDCA
  signal of human pancreatic lipase activity: merely a slight signal
